Our source for the relative viability values is the supplement of paper PMC10307832.

Holding throughout (assay): relative viability (nuclei count vs DMSO), 5 days (fraction); higher = more cells survive
Compound in the experiment “VE-821 + Tozasertib”: CS(=O)(=O)c1ccc(-c2cnc(N)c(C(=O)Nc3ccccc3)n2)cc1 [VE-821] + Cc1cc(Nc2cc(N3CCN(C)CC3)nc(Sc3ccc(NC(=O)C4CC4)cc3)n2)n[nH]1 [Tozasertib] (partner 0.1 µM)
Summed up:
(§1)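 Values are medians from duplicate plates. Each reflects relative viability, defined as the nuclei count of treated wells over that of vehicle wells. Lung cancer cell lines in 1536-well plates were pin-tool dosed one day after seeding with one drug alone or with a fixed anchor-drug dose plus five library-drug doses (not always all listed) in √10 steps, then fixed, stained and imaged at 4× after 5 days.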

Compound in the experiment “Vismodegib + Dasatinib”: CS(=O)(=O)c1ccc(C(=O)Nc2ccc(Cl)c(-c3ccccn3)c2)c(Cl)c1 [Vismodegib] + Cc1nc(Nc2ncc(C(=O)Nc3c(C)cccc3Cl)s2)cc(N2CCN(CCO)CC2)n1 [Dasatinib] (partner 0.075 µM)
Summed up:
as §1

Compound in the experiment “Vismodegib + OSI-027”: CS(=O)(=O)c1ccc(C(=O)Nc2ccc(Cl)c(-c3ccccn3)c2)c(Cl)c1 [Vismodegib] + COc1cccc2cc(-c3nc([C@H]4CC[C@H](C(=O)O)CC4)n4ncnc(N)c34)[nH]c12 [OSI-027] (partner 0.5 µM)
Summed up: as §1

Compound in the experiment “VE-821 + Linsitinib”: CS(=O)(=O)c1ccc(-c2cnc(N)c(C(=O)Nc3ccccc3)n2)cc1 [VE-821] + C[C@]1(O)C[C@@H](c2nc(-c3ccc4ccc(-c5ccccc5)nc4c3)c3c(N)nccn32)C1 [Linsitinib] (partner 1 µM)
Summed up:
as §1

Take UMC-11: the relative viability in the experiment with VE-821 + Tozasertib (first compound 0.08 µM) was 0.203; in the experiment with VE-821 + Tozasertib (first compound 0.253 µM), 0.195; with VE-821 + Tozasertib (first compound 0.8 µM) it was 0.223; in the experiment with VE-821 + Tozasertib (first compound 2.53 µM), 0.2; with VE-821 + Tozasertib (first compound 8 µM), 0.203; with Vismodegib + Dasatinib (first compound 0.08 µM) it was 0.434. In addition, the relative viability was 0.471 in the experiment with Vismodegib + Dasatinib (first compound 0.253 µM); 0.423 in the experiment with Vismodegib + Dasatinib (first compound 0.8 µM); 0.444 with Vismodegib + Dasatinib (first compound 2.53 µM); 0.418 in the experiment with Vismodegib + Dasatinib (first compound 8 µM); 0.499 with Vismodegib + OSI-027 (first compound 0.08 µM); 0.468 in the experiment with Vismodegib + OSI-027 (first compound 0.253 µM). In addition, the relative viability is 0.408 with Vismodegib + OSI-027 (first compound 0.8 µM); 0.43 with Vismodegib + OSI-027 (first compound 2.53 µM); 0.46 in the experiment with Vismodegib + OSI-027 (first compound 8 µM); 1.14 in the experiment with VE-821 + Linsitinib (first compound 0.08 µM); 1.03 in the experiment with VE-821 + Linsitinib (first compound 0.253 µM); 1.06 with VE-821 + Linsitinib (first compound 0.8 µM). Moreover, the relative viability with VE-821 + Linsitinib (first compound 2.53 µM) was 1.04; with VE-821 + Linsitinib (first compound 8 µM), 0.533.
